Measurements taken from ChEMBL document CHEMBL2311474, “Chiral 6,7-bis(hydroxymethyl)-1H,3H-pyrrolo[1,2-c]thiazoles with anti-breast cancer properties” (Eur J Med Chem, 2013).

Experiments:
[1] = Cytotoxicity against human HFF1 cells after 96 hrs by MTT assay; assay type: cell-based; conditions: HFF-1, 96 h
[2] = tested on: MCF7; experiment: Cytotoxicity against human MCF7 cells after 24 hrs by MTT assay; assay type: functional, cell-based; conditions: MCF7, 24 h
[3] = tested on: MCF7; experiment: Cytotoxicity against human MCF7 cells after 96 hrs by MTT assay; assay type: functional, cell-based; conditions: MCF7, 96 h
[4] = tested on: MCF7; experiment: Cytotoxicity against human MCF7 cells after 48 hrs by MTT assay; assay type: functional, cell-based; conditions: MCF7, 48 h
[5] = tested on: MCF7; experiment: Cytotoxicity against human MCF7 cells after 72 hrs by MTT assay; assay type: functional, cell-based; conditions: MCF7, 72 h

| Compound | IC50 [1] [µM] | IC50 [2] [µM] | IC50 [3] [µM] | IC50 [4] [µM] | IC50 [5] [µM] |
| --- | --- | --- | --- | --- | --- |
| Cc1c(CO)cc2n1[C@@H](c1ccccc1)SC2 | 154 |  |  |  |  |
| Cc1cc(CO)c2n1[C@@H](c1ccccc1)SC2 | 104 |  |  |  |  |
| Cc1c(COC(=O)NCc2ccccc2)cc2n1[C@@H](c1ccccc1)SC2 | 48.2 |  |  |  |  |
| OCc1c(CO)c(-c2ccccc2)n2c1CS[C@@H]2c1ccccc1 |  | 92.6 | 70.2 | 61.8 | 52.1 |
| OCc1c(CO)c(-c2ccc(F)cc2)n2c1CS[C@@H]2c1ccccc1 |  | 56.7 | 26.4 | 46.3 | 44.6 |
| Cc1c(CO)c(CO)c2n1[C@H](c1ccccc1)SC2 |  | 1.75 | 0.3 | 0.54 | 0.54 |
| Cc1c(CO)cc2n1CSC2 |  | 186 | 82.3 | 156 | 192 |
| Cc1cc(CO)c2n1CSC2 |  | 75.9 | 44.6 | 54.7 | 40.9 |
| Cc1c(CO)c(CO)c2n1CSC2 |  | 37.8 | 21.5 | 38.1 | 22.6 |
| COc1cc([C@H]2SCc3c(CO)c(CO)c(C)n32)cc(OC)c1OC |  | > 200 | 59.9 | 127 | 54.5 |
| OCc1cn2c(c1CO)CS[C@@H]2c1ccccc1 |  | 70.8 |  | 19.4 |  |
| OCc1cn2c(c1CO)CS[C@@H]2c1cccnc1 |  | > 200 | 30.6 | 128 | 61.7 |
